In patent US20260295053A1, “COMPOUNDS FOR DEGRADATION AND INHIBITION OF KRAS (G12D) PROTEIN” (Shenzhen Ionova Life Science Co., Ltd., priority 2023, published 2026) one finds DC50 and IC50 data, which are given here for eight molecules.

One experiment has as its target T1, KRAS (G12D) (Homo sapiens, UniProt P01116, G12D).
T1 construct: in-cell western with KRAS G12D antibody after 24 h
The experiment can be described thus: KRAS (G12D) cellular degradation assay in AsPC-1 cells. Format: cell-based. The settings on record: 24 hours, antibody fluorescence (Odyssey CLX), DC50 half-maximal degradation concentration. Put shortly:
(§1)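 Proliferation IC50 comes from CellTiter Glo luminescence after 6 days' exposure of AsPC-1 (3,500 cells/well) to 1:3 dilutions from […] to 1.5 nM. KRAS G12D DC50 derives from in-cell immunofluorescence normalised to β-actin after 24 h treatment of near-confluent AsPC-1 cells over the same range.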

Another experiment deals with AsPC-1 cells. The experiment can be described thus: AsPC-1 cell proliferation assay (CellTiter Glo). Format: cell-based. Conditions: Homo sapiens, ASPC1, 144 h, 6 days. Put shortly: as §1
In general terms: ATP-based viability assays read luminescence as a measure of living cells.

T1 sequence (P01116 1-188 isoform P01116-2 G12D): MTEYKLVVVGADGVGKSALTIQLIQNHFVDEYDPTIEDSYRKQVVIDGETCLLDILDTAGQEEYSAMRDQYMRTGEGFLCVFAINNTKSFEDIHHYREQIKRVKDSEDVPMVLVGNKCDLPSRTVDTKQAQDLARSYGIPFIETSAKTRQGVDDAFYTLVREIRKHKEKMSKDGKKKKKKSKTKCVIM

With `CCn1nccc1-c1ccc([C@@H](NC(=O)[C@@H]2C[C@@H](O)CN2C(=O)[C@H](C(C)C)n2cc(-c3ccc(COc4c(-c5c(C)c(F)cc6[nH]ncc56)c(C5CC5)cc5c(N6C[C@@H]7C[C@H]6CN7)nc(O[C@H]6C[C@H](OC)C6)nc45)cc3)nn2)[C@H](C)O)cn1` [Example 193, (2S,4R)-1-((2S)-2-(4-(4-(((4-((1S,4S)-2,5-diazabicyclo[2.2.1]heptan-2-yl)-6-cyclopropyl-7-(6-fluoro-5-methyl-1H-indazol-4-yl)-2-((1r,3S)-3-methoxycyclobutoxy)quinazolin-8-yl)oxy)methyl)phenyl)-1H-1,2,3-triazol-1-yl)-3-methylbutanoyl)-N-((1R,2S)-1-(6-(1-ethyl-1H-pyrazol-5-yl)pyridin-3-yl)-2-hydroxypropyl)-4-hydroxypyrrolidine-2-carboxamide], the DC50 at KRAS (G12D) lay in the range of 10 to 100 nM. Also, the IC50 with AsPC-1 cells was < 10 nM.

In the case of `CO[C@H]1C[C@H](Oc2nc(N(C)[C@H]3CCNC3)c3cc(C4CC4)c(-c4c(C)c(F)cc5[nH]ncc45)c(OCc4ccc(-c5cn([C@H](C(=O)N6C[C@H](O)C[C@H]6C(=O)N[C@H](c6ccc(-c7scnc7C)c7c6CC7)[C@H](C)O)C(C)C)nn5)cc4)c3n2)C1` [Example 194, (2S,4R)-1-((2S)-2-(4-(4-(((6-cyclopropyl-7-(6-fluoro-5-methyl-1H-indazol-4-yl)-2-((1r,3S)-3-methoxycyclobutoxy)-4-(methyl((S)-pyrrolidin-3-yl)amino)quinazolin-8-yl)oxy)methyl)phenyl)-1H-1,2,3-triazol-1-yl)-3-methylbutanoyl)-4-hydroxy-N-((1R,2S)-2-hydroxy-1-(5-(4-methylthiazol-5-yl)bicyclo[4.2.0]octa-1(6),2,4-trien-2-yl)propyl)pyrrolidine-2-carboxamide], at KRAS (G12D), the half-maximal degradation concentration (DC50) was < 10 nM. For the same molecule, in the experiment with AsPC-1 cells, the IC50 was < 10 nM.

For `CCn1nccc1-c1ccc([C@@H](NC(=O)[C@@H]2C[C@@H](O)CN2C(=O)[C@H](C(C)C)n2cc(-c3ccc(COc4c(-c5c(C)c(F)cc6[nH]ncc56)c(C5CC5)cc5c(N6C[C@@H]7C[C@H]6CN7)nc(O[C@H]6C[C@H](OC)C6)nc45)cc3)nn2)[C@H](C)O)cc1F` [Example 195, (2S,4R)-1-((2S)-2-(4-(4-(((4-((1S,4S)-2,5-diazabicyclo[2.2.1]heptan-2-yl)-6-cyclopropyl-7-(6-fluoro-5-methyl-1H-indazol-4-yl)-2-((1r,3S)-3-methoxycyclobutoxy)quinazolin-8-yl)oxy)methyl)phenyl)-1H-1,2,3-triazol-1-yl)-3-methylbutanoyl)-N-((1R,2S)-1-(4-(1-ethyl-1H-pyrazol-5-yl)-3-fluorophenyl)-2-hydroxypropyl)-4-hydroxypyrrolidine-2-carboxamide], the DC50 at KRAS (G12D) is < 10 nM. In the experiment with AsPC-1 cells, the IC50 was < 10 nM.

In turn, `CCn1nccc1-c1cc(F)c([C@@H](NC(=O)[C@@H]2C[C@@H](O)CN2C(=O)[C@H](C(C)C)n2cc(-c3ccc(COc4c(-c5c(C)c(F)cc6[nH]ncc56)c(C5CC5)cc5c(N6C[C@@H]7C[C@H]6CN7)nc(O[C@H]6C[C@H](OC)C6)nc45)cc3)nn2)[C@H](C)O)c(F)c1` [Example 196, (2S,4R)-1-((2S)-2-(4-(4-(((4-((1S,4S)-2,5-diazabicyclo[2.2.1]heptan-2-yl)-6-cyclopropyl-7-(6-fluoro-5-methyl-1H-indazol-4-yl)-2-((1r,3S)-3-methoxycyclobutoxy)quinazolin-8-yl)oxy)methyl)phenyl)-1H-1,2,3-triazol-1-yl)-3-methylbutanoyl)-N-((1R,2S)-1-(4-(1-ethyl-1H-pyrazol-5-yl)-2,6-difluorophenyl)-2-hydroxypropyl)-4-hydroxypyrrolidine-2-carboxamide] yielded a DC50 at KRAS (G12D) of 10 to 100 nM. Besides, the IC50 with AsPC-1 cells lay in the range of 10 to 100 nM.

As to `CCn1nccc1-c1ccc([C@H](CO)NC(=O)[C@@H]2C[C@@H](O)CN2C(=O)[C@H](C(C)C)n2cc(-c3ccc(COc4c(-c5c(C)c(F)cc6[nH]ncc56)c(C5CC5)cc5c(N(C)[C@H]6[C@@H]7CN[C@H]6C7)nc(OC[C@H](C)OC)nc45)cc3)nn2)cc1` [Example 197, (2S,4R)-1-((2S)-2-(4-(4-(((4-(((1S,4S,5S)-2-azabicyclo[2.1.1]hexan-5-yl)(methyl)amino)-6-cyclopropyl-7-(6-fluoro-5-methyl-1H-indazol-4-yl)-2-((S)-2-methoxypropoxy)quinazolin-8-yl)oxy)methyl)phenyl)-1H-1,2,3-triazol-1-yl)-3-methylbutanoyl)-N—((R)-1-(4-(1-ethyl-1H-pyrazol-5-yl)phenyl)-2-hydroxyethyl)-4-hydroxypyrrolidine-2-carboxamide], at KRAS (G12D), the DC50 was < 10 nM. Moreover, the IC50 in the experiment with AsPC-1 cells was < 10 nM.

For the molecule `CCn1nccc1-c1ccc([C@@H](NC(=O)[C@@H]2C[C@@H](O)CN2C(=O)[C@H](C(C)C)n2cc(-c3ccc(COc4c(-c5c(C)c(F)cc6[nH]ncc56)c(C5CC5)cc5c(N6C[C@@H]7C[C@H]6CN7)nc(O[C@H]6C[C@H](OC)C6)nc45)cc3)nn2)[C@H](C)O)c(F)c1` [Example 198, (2S,4R)-1-((2S)-2-(4-(4-(((4-((1S,4S)-2,5-diazabicyclo[2.2.1]heptan-2-yl)-6-cyclopropyl-7-(6-fluoro-5-methyl-1H-indazol-4-yl)-2-((1r,3S)-3-methoxycyclobutoxy)quinazolin-8-yl)oxy)methyl)phenyl)-1H-1,2,3-triazol-1-yl)-3-methylbutanoyl)-N-((1R,2S)-1-(4-(1-ethyl-1H-pyrazol-5-yl)-2-fluorophenyl)-2-hydroxypropyl)-4-hydroxypyrrolidine-2-carboxamide], the DC50 on KRAS (G12D) was < 10 nM. Also, the IC50 in the experiment on AsPC-1 cells was < 10 nM.

As to `CO[C@H]1C[C@H](Oc2nc(N3CCCNCC3)c3cc(C4CC4)c(-c4c(C)c(F)cc5[nH]ncc45)c(OCc4ccc(-c5cn([C@H](C(=O)N6C[C@H](O)C[C@H]6C(=O)N[C@@H](CO)c6ccc(-c7scnc7C)cc6)C(C)C)nn5)cc4)c3n2)C1` [Example 199, (2S,4R)-1-((2S)-2-(4-(4-(((6-cyclopropyl-4-(1,4-diazepan-1-yl)-7-(6-fluoro-5-methyl-1H-indazol-4-yl)-2-((1r,3r)-3-methoxycyclobutoxy)quinazolin-8-yl)oxy)methyl)phenyl)-1H-1,2,3-triazol-1-yl)-3-methylbutanoyl)-4-hydroxy-N—((R)-2-hydroxy-1-(4-(4-methylthiazol-5-yl)phenyl)ethyl)pyrrolidine-2-carboxamide], the DC50 on KRAS (G12D) is < 10 nM. In addition, the IC50 in the experiment on AsPC-1 cells is < 10 nM.

`CCn1nccc1-c1ccc([C@@H](NC(=O)[C@@H]2C[C@@H](O)CN2C(=O)[C@H](C(C)C)n2cc(-c3ccc(COc4c(-c5c(C)c(F)cc6[nH]ncc56)c(C5CC5)cc5c(N6CCNCC[C@H]6C)nc(OC[C@H](C)OC)nc45)cc3)nn2)[C@H](C)O)cc1` [Example 201, (2S,4R)-1-((2S)-2-(4-(4-(((6-cyclopropyl-7-(6-fluoro-5-methyl-1H-indazol-4-yl)-2-((S)-2-methoxypropoxy)-4-((R)-7-methyl-1,4-diazepan-1-yl)quinazolin-8-yl)oxy)methyl)phenyl)-1H-1,2,3-triazol-1-yl)-3-methylbutanoyl)-N-((1R,2S)-1-(4-(1-ethyl-1H-pyrazol-5-yl)phenyl)-2-hydroxypropyl)-4-hydroxypyrrolidine-2-carboxamide]: the DC50 on KRAS (G12D) was < 10 nM. Further, the IC50 in the experiment on AsPC-1 cells was < 10 nM.

As a reminder, the DC50 is the concentration giving 50% degradation. A lower DC50 goes with a more potent degrader. As usually defined, the IC50 is the concentration needed to halve the response being measured. Read a low IC50 as higher potency.
